# PubChem BioAssay (NCI)
#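 Cells were grown in 96-well plates and exposed to each compound for 48 hours at five concentrations; endpoints were interpolated linearly between bracketing concentrations, or set to the highest concentration if not reached. At the GI50, growth is halved. At the TGI there is no net growth.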
# What was measured:
# Test in all cases: DTP human tumour cell line panel, 48 h
# HCT-116 colon = system: HCT-116 colon
# SF-539 CNS = system: SF-539 CNS
# LOX IMVI melanoma = system: LOX IMVI melanoma
# HOP-62 NSCLC = system: HOP-62 NSCLC
# SNB-19 CNS = system: SNB-19 CNS
# NCI-H460 lung = system: NCI-H460 lung
# RPMI-8226 leukemia = system: RPMI-8226 leukemia
# TK-10 renal = system: TK-10 renal
# HCC-2998 colon = system: HCC-2998 colon
# BT-549 breast = system: BT-549 breast
SMILES,GI50 (HCT-116 colon) [µM],TGI (HCT-116 colon) [µM],GI50 (SF-539 CNS) [µM],TGI (SF-539 CNS) [µM],GI50 (LOX IMVI melanoma) [µM],TGI (LOX IMVI melanoma) [µM],GI50 (HOP-62 NSCLC) [µM],TGI (HOP-62 NSCLC) [µM],GI50 (SNB-19 CNS) [µM],TGI (SNB-19 CNS) [µM],GI50 (NCI-H460 lung) [µM],TGI (NCI-H460 lung) [µM],GI50 (RPMI-8226 leukemia) [µM],TGI (RPMI-8226 leukemia) [µM],TGI (TK-10 renal) [µM],TGI (HCC-2998 colon) [µM],GI50 (TK-10 renal) [µM],GI50 (BT-549 breast) [µM],TGI (BT-549 breast) [µM],GI50 (HCC-2998 colon) [µM]
CCOCC[P+](c1ccccc1)(c1ccccc1)c1ccccc1,14.7,> 100,23.2,> 100,15.3,42.3,29.7,> 100,21.3,> 100,25.7,> 100,4.55,40.4,–,–,–,–,–,–
O=C1CC23CC(=O)CC2(C1)c1ccccc1C3=O (stereo not drawn),–,> 100,–,> 100,–,> 100,–,> 100,–,> 100,–,> 100,–,> 100,> 100,> 100,–,–,–,–
COc1ccc(/C=C2\CCCC3=C2N=C2SC=NN2C3c2ccc(OC)c(OC)c2)cc1OC (stereo not drawn),4.79,32.5,14.6,68.5,16.6,75.1,24.3,> 100,32.9,> 100,22.4,> 100,–,–,76.2,> 100,21,21.9,> 100,> 100
O=CN/C=C/c1ccccc1O,–,> 100,–,> 100,–,> 100,–,> 100,–,> 100,–,> 100,–,> 100,> 100,> 100,–,–,–,–
O=C(Nc1ccc(Cl)cc1Cl)/C(Cl)=C1/Sc2ccccc2NC1=O,–,66.4,–,> 100,–,> 100,–,> 100,–,> 100,–,> 100,–,65.9,> 100,> 100,–,–,–,–
O=[N+]([O-])c1ccc(C2N3CCCCC3[C@@H]3c4[nH]c5ccccc5c4CCN23)cc1 (stereo partly drawn),–,19.7,–,29.9,–,–,–,47.9,–,67.1,–,40.9,–,> 100,51.1,–,–,–,–,–
O=C(Cc1nc2ccccc2s1)NC12CC3CC(CC(C3)C1)C2,–,> 100,–,> 100,–,> 100,–,> 100,–,> 100,–,> 100,–,–,> 100,> 100,–,–,–,–
O=c1[nH]c(C2CCCCC2)nc2cc(Cl)ccc12,–,> 100,–,> 100,–,–,–,–,–,> 100,–,–,–,> 100,> 100,> 100,–,–,–,–
COc1ccc(OC)c2c3c(ncc12)-c1cc2c(cc1C3)OCO2,0.249,> 100,–,–,0.104,1.85,–,0.0603,> 100,> 100,5.6,> 100,> 100,> 100,> 100,> 100,> 100,–,–,> 100
C=C1CCC2C(C)(CO)C(O)CCC2(C)C1CC(O)C1=CCOC1=O (stereo not drawn),–,73.3,–,55,–,> 100,–,> 100,–,> 100,–,> 100,–,> 100,> 100,40.8,–,–,–,–
Cc1ccc(S(=O)(=O)NC(=O)Nc2nc(Cl)cc(Cl)n2)cc1,–,> 100,–,> 100,–,> 100,–,> 100,–,> 100,–,> 100,–,> 100,> 100,> 100,–,–,–,–
COC(=O)/C(Br)=C/c1c[nH]c2ccc(Br)cc12,12.5,27.4,14.9,32.9,7.18,20.2,17.6,51.9,16.7,45.7,17.6,36.9,–,–,49.4,30.4,19,11.2,23.6,15.9
C/C(CC(=O)Nc1ccc([N+](=O)[O-])cc1)=N/N=C(N)N,–,> 100,–,> 100,–,> 100,–,> 100,–,–,–,> 100,–,–,> 100,> 100,–,–,–,–
O=C1C=CC(=O)N1CCCCCCCCCCN1C(=O)C=CC1=O,3.6,12.9,16.4,30.6,11.3,24.4,16.2,31.3,37.6,> 100,33.3,> 100,6.72,57.7,69,71.2,22.9,–,–,26
CC(C)(C)C1CCN(C(=O)c2ccccc2)CC1,–,> 100,–,> 100,–,> 100,–,> 100,–,> 100,–,> 100,–,> 100,> 100,> 100,–,–,–,–
Cc1ccccc1C(C#N)/C(=N/NC(=O)C(=O)NN)C(=O)Nc1cccc(C(F)(F)F)c1 (stereo not drawn),–,> 100,–,> 100,–,–,–,> 100,–,> 100,–,> 100,–,> 100,> 100,> 100,–,–,–,–
N=c1c2c(=O)n3c(nc2nc2sc4ccc(Cl)cc4n12)-c1ccccc1Sc1ccccc1-3,2.34,10.3,3.34,18.4,2.69,20.2,3.64,28.3,4.31,20.4,2.07,6.98,1.44,> 100,47.1,12.8,4.3,–,–,3.12
CCC1=C[C@H]2CN(CCc3c([nH]c4ccccc34)[C@@](C(=O)OC)(c3cc4c(cc3OC)N(C)[C@H]3[C@@](O)(C(=O)OC)[C@H](OC(C)=O)[C@]5(CC)[C@@H]6C[C@@H]6CN6CC[C@]43[C@@H]65)C2)C1,0.0185,2.61,0.054,0.179,0.0229,3.4,0.0249,4.43,0.0825,23.4,0.0383,2.65,–,–,8.13,3.07,3.33,0.106,4.29,0.084
COC(=O)CCC(=O)C(C#N)c1ccc(Cl)cc1Cl (stereo not drawn),–,> 100,–,> 100,–,> 100,–,–,–,> 100,–,–,–,> 100,> 100,–,–,–,–,–

SMILES,GI50 (HCT-116 colon) [µM],TGI (HCT-116 colon) [µM],GI50 (SF-539 CNS) [µM],TGI (SF-539 CNS) [µM],GI50 (LOX IMVI melanoma) [µM],TGI (LOX IMVI melanoma) [µM],GI50 (HOP-62 NSCLC) [µM],TGI (HOP-62 NSCLC) [µM],GI50 (SNB-19 CNS) [µM],TGI (SNB-19 CNS) [µM],GI50 (NCI-H460 lung) [µM],TGI (NCI-H460 lung) [µM],GI50 (RPMI-8226 leukemia) [µM],TGI (RPMI-8226 leukemia) [µM],TGI (TK-10 renal) [µM],TGI (HCC-2998 colon) [µM],GI50 (TK-10 renal) [µM],GI50 (BT-549 breast) [µM],TGI (BT-549 breast) [µM],GI50 (HCC-2998 colon) [µM]
CCOC(=O)c1c2c(n3cccc(F)c13)C(=O)c1ncccc1C2=O,0.317,3.91,0.157,1.35,0.0932,1.92,0.0494,5.17,0.0703,4.49,0.0263,1.12,1.91,37.3,27.2,15.4,0.216,–,–,1.29
O=c1nc2[nH]nc(-c3ccccc3)c2n[nH]1,–,> 100,–,36.4,–,> 100,–,> 100,–,> 100,–,> 100,–,> 100,> 100,> 100,–,–,–,–
NC(CCCNCc1ccccc1O)C(=O)O (stereo not drawn),–,> 100,–,> 100,–,> 100,–,> 100,–,> 100,–,> 100,–,> 100,> 100,–,–,–,–,–
Cc1ccc(C2CC(c3cccc(Nc4ccncc4)c3)=NN2c2ccc(Cl)cc2)cc1 (stereo not drawn),1.84,3.71,1.74,3.14,1.62,2.97,–,–,–,–,1.72,3.34,–,–,3.35,3.14,1.78,1.81,3.4,1.69
O=C1[C@H](c2ccccc2)C2c3ccccc3CCN12 (stereo partly drawn),> 100,> 100,> 100,> 100,> 100,> 100,> 100,> 100,> 100,> 100,> 100,> 100,> 100,> 100,> 100,> 100,> 100,–,–,> 100
N#Cc1ccccc1/C=N/O,–,> 61.6,–,> 100,–,> 100,–,> 100,–,> 100,–,> 100,–,> 66.7,> 100,> 100,–,–,–,–
COC(=O)/C(Cl)=C1/CC1COCc1ccccc1 (stereo not drawn),–,–,–,49.8,–,> 10,–,> 100,–,> 100,–,> 100,–,58.3,> 100,> 10,–,–,–,–
COc1cc([C@@H]2c3cc4c(cc3[C@@H](NC(=O)c3ccc([N+](=O)[O-])cc3)C3COC(=O)[C@@H]32)OCO4)cc(OC)c1O (stereo partly drawn),–,5.32,–,2.06,–,5.86,–,1.12,–,6.06,–,2.38,–,3.62,5.86,3.44,–,–,–,–
C/C(CN1C(=O)c2ccccc2C1=O)=N\NS(C)(=O)=O,–,> 100,–,> 100,–,–,–,> 100,–,> 100,–,> 100,–,> 100,> 100,> 100,–,–,–,–
Cn1c(-c2ccccc2)c/c(=N\NS(C)(=O)=O)c2cc(S(=O)(=O)O)ccc21,–,> 100,–,> 100,–,> 100,–,> 100,–,> 100,–,> 100,–,> 100,> 100,> 100,–,–,–,–
Clc1ccc(CCn2cncn2)c(Cl)c1,–,> 100,–,> 100,–,–,–,> 100,–,> 100,–,> 100,–,–,> 100,> 100,–,–,–,–
C#Cc1ccc(-n2c(/C=C/c3ccc4ccccc4n3)nc3ncccc3c2=O)cc1,0.346,1.2,0.593,1.93,0.169,0.657,0.85,2.36,–,–,0.776,2.91,–,–,–,1.79,–,0.514,2.19,0.64
[O-][N+]1=C(c2ccccc2)COc2ccccc21,–,> 100,–,> 100,–,> 100,–,> 100,–,> 100,–,> 100,–,> 100,> 100,> 100,–,–,–,–
O=C(O)c1cn(C2CC2)c2cc(N3CCN(C(=O)Nc4nc(-c5ccc(Cl)cc5)cs4)CC3)c(F)cc2c1=O,1.12,> 100,0.775,> 100,0.567,> 100,3,96.1,2.74,> 100,1.76,> 100,–,–,> 100,> 100,4.11,0.934,25.5,4.09
COc1ccc(OC)c(/C=C/c2cnnc3ccccc23)c1,–,> 10,–,8.62,–,> 10,–,> 10,–,> 10,–,> 10,–,> 10,> 10,> 10,–,–,–,–
Cc1cc2c(=O)cc(-c3ccc(C(=O)O)cc3)oc2c(C(=O)O)c1C,–,> 100,–,> 100,–,> 100,–,> 100,–,> 100,–,> 100,–,> 100,> 100,> 100,–,–,–,–
COC(C(=O)[C@@H](O)[C@@H](C)O)[C@@H]1Cc2cc3cc(O[C@H]4C[C@@H](O[C@H]5C[C@@H](O)[C@H](O)C(C)O5)[C@H](O)C(C)O4)c(C)c(O)c3c(O)c2C(=O)[C@H]1O[C@H]1C[C@@H](O[C@H]2C[C@@H](O[C@H]3C[C@@H](O)[C@@H](O)C(C)O3)[C@@H](O)C(C)O2)[C@H](O)C(C)O1 (stereo partly drawn),0.275,> 32.5,0.147,2.82,0.0639,0.471,0.189,> 32.5,0.324,> 32.5,0.104,> 32.5,–,–,> 32.5,7.74,0.873,0.149,4.42,0.569
FC(F)(F)c1ccccc1C=NC12CC3CC(CC(C3)C1)C2,–,> 100,–,> 100,–,> 100,–,> 100,–,> 100,–,> 100,–,> 100,> 100,> 100,–,–,–,–
